In patent publication US20260130933A1, “PHARMACEUTICAL COMPOSITION FOR PREVENTION OR TREATMENT OF NEPHROPATHY AND/OR DIABETES MELLITUS, COMPRISING ENAVOGLIFLOZIN” (DAEWOONG PHARMACEUTICAL CO., LTD., priority 2022, published 2026):

Experiment: Example 3: phase 3 trial, enavogliflozin 0.3 mg vs dapagliflozin 10 mg once a day for 24 weeks added to metformin and gemigliptin in patients with type 2 diabetes (same endpoints, rescue drug)
Assay type: in vivo, human
Settings: week 12
Description: 1) when Metformin (≥1,000 mg/Day) was Administered at a Constant Dose for at Least 8 Weeks Prior to Pre-Visit (Pre-Screening) • Metformin (≥1,000 mg/day) and gemigliptin (50 mg/day) were co-administered during the 8-week stabilization period. […] 4) when Metformin (≥1,000 mg/Day) and Gemigliptin (50 mg/Day) were Co-Administered at Constant Doses for at Least 8 Weeks Prior to Pre-Visit (Prescreening) • Without a separate stabilization period, Pre-visit (pre-screening) was Visit 1 (screening).
Subjects who met the inclusion/exclusion criteria continued to receive metformin and gemigliptin while receiving a placebo of the clinical trial drug in a single-blind (subject-blinded) state for a 2-week run-in period.
Here, the randomized subjects were stratified according to the administration therapy (co-administration with two or less agents (one or two agents) or three or more agents) of a conventional hypoglycemic agent (before washout of another hypoglycemic agent) within 24 weeks prior to obtaining written informed consent and by an HbA1c value (<8% or ≥8%) at Visit 1 (screening) measured in the central laboratory.
The randomized subjects were administered two tablets of the clinical trial drug corresponding to each administration group once a day, and then visited the institution at weeks 6, 12, 18, and 24 during the 24-week administration period to conduct efficacy and safety assessments. In addition, during the clinical trial period, they were instructed to exercise regularly and control their diet without changing their daily life patterns.
• 1) Change in HbA1c at week 24 after administration of clinical trial drug compared to Visit 2 (randomization)
• 1) Change in HbA1c at each time point of weeks 6, 12, and 18 after administration of clinical trial drug compared to Visit 2 (randomization) • 2) Change in FPG at each time point of weeks 6, 12, 18, and 24 after administration of clinical trial drug compared to Visit 2 (randomization) • 3) Proportion of subjects achieving HbA1c<7% at each time point of weeks 6, 12, 18, and 24 after administration of clinical trial drug • 4) Proportion of subjects achieving HbA1c<6.5% at each time point of weeks 6, 12, 18, and 24 after administration of clinical trial drug • 5) Proportion of subjects achieving therapeutic response (HbA1c change (HbA1c at Visit 2—HbA1c at each evaluation time point)>0.5% or HbA1c<7% at each evaluation time point compared to Visit 2 (randomization)) at each time point of weeks 6, 12, 18, and 24 after administration of clinical trial drug • 6) Proportion of subjects achieving therapeutic response (HbA1c change (HbA1c at Visit 2—HbA1c at each evaluation time point)>0.7% or HbA1c<7% at each evaluation time point compared to Visit 2 (randomization)) at each time point of weeks 6, 12, 18, and 24 after administration of clinical trial drug • 7) Proportion of subjects achieving therapeutic response (HbA1c change (HbA1c at Visit 2—HbA1c at each evaluation time point)>1% or HbA1c<7% at each evaluation time point compared to Visit 2 (randomization)) at each time point of weeks 6, 12, 18, and 24 after administration of clinical trial drug

[1] = modified per-protocol set 2, enavogliflozin 0.3 mg, dapagliflozin 10 mg
[2] = per-protocol set, enavogliflozin 0.3 mg vs dapagliflozin 10 mg
[3] = per-protocol set, enavogliflozin 0.3 mg, dapagliflozin 10 mg

With `OC[C@H]1O[C@@H](c2cc(Cc3ccc(C4CC4)cc3)c(Cl)c3c2CCO3)[C@H](O)[C@@H](O)[C@@H]1O` [Enavogliflozin, (2S,3R,4R,5S,6R)-2-(7-chloro-6 (4-cyclopropylbenzyl)-2,3-dihydrobenzofuran-4-yl)-6-(hydroxymethyl)tetrahydro-2H-pyran-3,4,5-triol] the “Change from baseline in diastolic blood pressure, Mean” value (modified per-protocol set 2) was −5.07 mmHg, the “Change from baseline in diastolic blood pressure, Median” value (modified per-protocol set 2) was −5.00 mmHg and the “Diastolic blood pressure, Mean” value (modified per-protocol set 2) was 71.61 mmHg. For the same compound, the “Diastolic blood pressure, Median” value (modified per-protocol set 2) was 72.00 mmHg, the “Change from baseline in systolic blood pressure, ANCOVA LS mean difference” value (modified per-protocol set 2, enavogliflozin 0.3 mg vs dapagliflozin 10 mg) was −1.37 mmHg and the “Change from baseline in systolic blood pressure, ANCOVA LS mean” value [1] was −6.43 mmHg. For the same compound, the “Change from baseline in systolic blood pressure, Mean” value [1] was −7.10 mmHg, the “Change from baseline in systolic blood pressure, Median” value [1] was −8.00 mmHg and the “Systolic blood pressure, Mean” value [1] was 120.73 mmHg. The “Systolic blood pressure, Median” value [1] was 121.00 mmHg, the “Adiponectin, Mean” value (per-protocol set) was 7.13 µg/mL and the “Adiponectin, Median” value (per-protocol set) was 6.24 µg/mL. For the same compound, the “Change from baseline in HOMA-IR, ANCOVA LS mean” value (per-protocol set) was −1.11, the “Change from baseline in HOMA-IR, LS mean difference (enavogliflozin − dapagliflozin)” value (per-protocol set) was −0.06 and the “Change from baseline in HOMA-IR, Mean” value (per-protocol set) was −1.16. For the same compound, the “Change from baseline in HOMA-IR, Median” value (per-protocol set) was −0.79, the “Change from baseline in HOMA-β, ANCOVA LS mean” value (per-protocol set) was 7.78 and the “Change from baseline in HOMA-β, LS mean difference (enavogliflozin − dapagliflozin)” value (per-protocol set) was 2.55. The “Change from baseline in HOMA-β, Mean” value (per-protocol set) was 6.71, the “Change from baseline in HOMA-β, Median” value (per-protocol set) was 4.80 and the “Change from baseline in UACR, ANCOVA LS mean” value (per-protocol set) was -15.12 g/kg. The “Change from baseline in UACR, LS mean difference (enavogliflozin − dapagliflozin)” value (per-protocol set) was -3.35 g/kg, the “Change from baseline in UACR, Mean” value (per-protocol set) was -18.62 g/kg and the “Change from baseline in UACR, Median” value (per-protocol set) was -1.05 g/kg. For the same compound, the “Change from baseline in UGCR, ANCOVA LS mean” value (per-protocol set) was 58.21 mg/mg, the “Change from baseline in UGCR, LS mean difference (enavogliflozin − dapagliflozin)” value (per-protocol set) was 13.37 mg/mg and the “Change from baseline in UGCR, Mean” value (per-protocol set) was 57.00 mg/mg. For the same compound, the “Change from baseline in UGCR, Median” value (per-protocol set) was 57.05 mg/mg, the “Change from baseline in adiponectin, ANCOVA LS mean” value (per-protocol set) was 0.89 µg/mL and the “Change from baseline in adiponectin, LS mean difference (enavogliflozin − dapagliflozin)” value (per-protocol set) was 0.19 µg/mL. For the same compound, the “Change from baseline in adiponectin, Mean” value (per-protocol set) was 0.88 µg/mL, the “Change from baseline in adiponectin, Median” value (per-protocol set) was 1.00 µg/mL and the “Change from baseline in leptin, ANCOVA LS mean” value (per-protocol set) was -1.97 ng/mL. For the same compound, the “Change from baseline in leptin, LS mean difference (enavogliflozin − dapagliflozin)” value (per-protocol set) was -0.28 ng/mL, the “Change from baseline in leptin, Mean” value (per-protocol set) was -1.96 ng/mL and the “Change from baseline in leptin, Median” value (per-protocol set) was -1.28 ng/mL. The “HOMA-IR (insulin resistance), Mean” value (per-protocol set) was 1.76, the “HOMA-IR (insulin resistance), Median” value (per-protocol set) was 1.46 and the “HOMA-β (beta-cell function), Mean” value (per-protocol set) was 49.46. The “HOMA-β (beta-cell function), Median” value (per-protocol set) was 41.50, the “Leptin, Mean” value (per-protocol set) was 8.56 ng/mL and the “Leptin, Median” value (per-protocol set) was 5.74 ng/mL. The “UACR, Mean” value (per-protocol set) was 29.37 g/kg, the “UACR, Median” value (per-protocol set) was 11.20 g/kg and the “UGCR, Mean” value (per-protocol set) was 57.71 mg/mg. The “UGCR, Median” value (per-protocol set) was 57.43 mg/mg, the “Achieving HbA1c target of <6.5%, odds ratio (logistic regression model)” value [2] was 1.44 and the “Achieving HbA1c target of <7%, odds ratio (logistic regression model)” value [2] was 1.20. For the same compound, the “Change from baseline in FPG, ANCOVA LS mean difference” value [2] was -2.75 mg/dL, the “Change from baseline in HbA1c, ANCOVA LS mean difference” value [2] was −0.04 % p and the “Change from baseline in body weight, ANCOVA LS mean difference” value [2] was -0.01 kg. The “Change from baseline in fasting C-peptide, ANCOVA LS mean difference” value [2] was -0.02 ng/mL, the “Therapeutic glycemic response 1, odds ratio (logistic regression model)” value [2] was 1.09 and the “Therapeutic glycemic response 2, odds ratio (logistic regression model)” value [2] was 1.30. The “Therapeutic glycemic response 3, odds ratio (logistic regression model)” value [2] was 1.31, the “Body weight, Mean” value [3] was 66.54 kg and the “Change from baseline in FPG, ANCOVA LS mean” value [3] was -27.17 mg/dL. For the same compound, the “Change from baseline in FPG, Mean” value [3] was -27.47 mg/dL, the “Change from baseline in FPG, Median” value [3] was -25.00 mg/dL and the “Change from baseline in HbA1c, ANCOVA LS mean” value [3] was −0.87 % p. For the same compound, the “Change from baseline in HbA1c, Mean” value [3] was −0.89 % p, the “Change from baseline in HbA1c, Median” value [3] was −0.75 % p and the “Change from baseline in body weight, ANCOVA LS mean” value [3] was -2.72 kg. For the same compound, the “Change from baseline in body weight, Mean” value [3] was -2.65 kg, the “Change from baseline in body weight, Median” value [3] was -2.90 kg and the “Change from baseline in fasting C-peptide, ANCOVA LS mean” value [3] was -0.09 ng/mL. The “Change from baseline in fasting C-peptide, Mean” value [3] was -0.09 ng/mL, the “Change from baseline in fasting C-peptide, Median” value [3] was -0.10 ng/mL and the “FPG, Mean” value [3] was 112.29 mg/dL. The “FPG, Median” value [3] was 110.00 mg/dL, the “Fasting C-peptide, Mean” value [3] was 0.64 ng/mL and the “Fasting C-peptide, Median” value [3] was 0.63 ng/mL. For the same compound, the “HbA1c, Mean” value [3] was 6.90%.
